In patent US10407381B2 (THE BOARD OF TRUSTEES OF THE UNIVERSITY OF ILLINOIS, priority 2015, dated 2019):
Read-outs that look alike come from different tables or passages of the source.

Legend:
rat 5-HT2C-INI = molecular target: T1, rat 5-HT2C-INI (Rattus norvegicus, UniProt P08909); experiment: Calcium flux (FLIPR) assay, rat 5-HT2C-INI receptors expressed on PO1C cells; assay type: cell-based; conditions: data acquired with rat 5-HT2C-INI receptors expressed on PO1C cells; for EC50: NA = no activity at 10 μM, read-out: EC50, nM 5-HT2C (footnote a)
T1 construct: expressed in transfected cells; host or cells: rat PO1C cell line
T1 sequence (P08909 33-460): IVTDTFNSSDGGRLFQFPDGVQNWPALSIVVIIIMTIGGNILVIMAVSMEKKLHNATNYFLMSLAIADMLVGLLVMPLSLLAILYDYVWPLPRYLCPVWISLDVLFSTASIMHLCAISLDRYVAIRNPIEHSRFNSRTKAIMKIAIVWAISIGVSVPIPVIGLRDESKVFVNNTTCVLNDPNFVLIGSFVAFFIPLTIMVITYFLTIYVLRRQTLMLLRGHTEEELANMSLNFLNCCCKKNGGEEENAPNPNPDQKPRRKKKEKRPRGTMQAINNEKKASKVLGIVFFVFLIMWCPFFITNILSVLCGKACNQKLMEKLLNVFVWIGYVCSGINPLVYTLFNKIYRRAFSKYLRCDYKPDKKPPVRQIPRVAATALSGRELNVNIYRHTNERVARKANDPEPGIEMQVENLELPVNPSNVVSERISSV
Method: Rat 5-HT2C-INI Receptors Expressed on PO1C Cells
Rat PO1C cell line stably expressing the rat 5-HT2C-INI was plated onto Poly-L-Lys-coated 384-well black clear bottom cell culture plates in DMEM 1% dialyzed FBS (12 000 cells/well). Preceding the experiment, culture medium was removed and 20 μl of assay buffer (20 mM Hepes, pH 7.40, Hanks' balanced salt solution, 2.5 mM probenecid, 1×FLIPR calcium dye) was added and cells incubated at 37° C. for 1 h. Serial dilution of each tested drugs were prepared at 3× final concentration and transfer to a 384-well plates. Cell and drug plates were placed in a FLIPR^TETRA fluorescence imaging plate reader ([…]) and programmed to read baseline for 10 sec (1 read/s) and then add 10 μl of drug/well and to read additional 120 sec. […] Data were plotted and normalized compared to 5-HT and regressed using sigmoidal dose-response function. Data of two independent experiments (n=2) conducted in quadruplicate are presented. Analyses were performed using the software GraphPad Prism 6.0.

5-HT2A = 5-HT2A (Homo sapiens, UniProt P28223); experiment: Calcium flux (FLIPR) assay, human 5-HT2A stably expressed in HEK-293 (Flp-In-293) cells; conditions: for Emax, % 5-HT 5-HT2A: normalized to 5-HT
Chain of 5-HT2A (P28223 whole entry): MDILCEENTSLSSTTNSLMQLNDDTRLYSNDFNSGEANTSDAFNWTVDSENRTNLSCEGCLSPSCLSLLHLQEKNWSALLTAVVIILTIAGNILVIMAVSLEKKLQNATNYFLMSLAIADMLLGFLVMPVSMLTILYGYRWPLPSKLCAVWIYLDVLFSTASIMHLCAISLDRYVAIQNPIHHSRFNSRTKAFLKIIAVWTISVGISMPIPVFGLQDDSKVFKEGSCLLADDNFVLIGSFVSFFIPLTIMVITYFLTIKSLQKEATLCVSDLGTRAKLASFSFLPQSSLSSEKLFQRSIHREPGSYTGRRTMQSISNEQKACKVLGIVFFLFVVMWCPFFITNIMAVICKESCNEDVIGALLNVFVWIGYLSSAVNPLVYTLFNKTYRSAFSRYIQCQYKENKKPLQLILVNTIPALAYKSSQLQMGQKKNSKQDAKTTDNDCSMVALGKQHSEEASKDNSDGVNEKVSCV

5-HT2B = 5-HT2B (Homo sapiens, UniProt P41595); experiment: Calcium flux (FLIPR) assay, human 5-HT2B stably expressed in HEK-293 (Flp-In-293) cells; conditions: for Emax, % 5-HT 5-HT2B: normalized to 5-HT
Chain of 5-HT2B (P41595 whole entry): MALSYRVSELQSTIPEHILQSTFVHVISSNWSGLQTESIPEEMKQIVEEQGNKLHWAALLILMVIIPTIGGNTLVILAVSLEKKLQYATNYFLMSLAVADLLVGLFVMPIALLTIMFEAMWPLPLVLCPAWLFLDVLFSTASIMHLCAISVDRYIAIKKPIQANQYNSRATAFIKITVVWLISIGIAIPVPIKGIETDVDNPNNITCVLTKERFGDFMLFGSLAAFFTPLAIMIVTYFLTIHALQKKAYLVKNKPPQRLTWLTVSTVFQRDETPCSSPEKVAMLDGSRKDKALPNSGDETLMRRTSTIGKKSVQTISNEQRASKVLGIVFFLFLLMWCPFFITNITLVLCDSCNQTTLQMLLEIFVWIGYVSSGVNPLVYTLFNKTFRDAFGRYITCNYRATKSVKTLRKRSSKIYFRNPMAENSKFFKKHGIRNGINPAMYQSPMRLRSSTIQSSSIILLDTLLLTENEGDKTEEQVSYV

human 5-HT2C-INI = molecular target: T2, human 5-HT2C-INI (Homo sapiens, UniProt P28335); experiment: Calcium flux (FLIPR) assay, human 5-HT2C-INI stably expressed in HEK-293 (Flp-In-293) cells; conditions: human 5-HT2C-INI in HEK-293 cells, FLIPR; for EC50: NA = no activity at 10 μM; for Emax, % 5-HT 5-HT2C: normalized to 5-HT
T2 sequence (P28335 33-458): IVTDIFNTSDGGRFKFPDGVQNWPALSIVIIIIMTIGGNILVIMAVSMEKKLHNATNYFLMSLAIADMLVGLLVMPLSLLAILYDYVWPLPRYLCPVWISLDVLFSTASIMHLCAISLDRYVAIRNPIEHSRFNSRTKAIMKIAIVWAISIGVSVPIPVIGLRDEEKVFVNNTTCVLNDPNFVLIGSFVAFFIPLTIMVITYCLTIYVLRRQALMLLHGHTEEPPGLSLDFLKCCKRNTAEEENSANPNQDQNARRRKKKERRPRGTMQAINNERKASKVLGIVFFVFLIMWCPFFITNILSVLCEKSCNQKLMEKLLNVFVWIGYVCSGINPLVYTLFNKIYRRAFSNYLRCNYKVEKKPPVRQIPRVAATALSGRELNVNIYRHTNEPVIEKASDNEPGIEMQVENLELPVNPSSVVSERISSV

[1] = EC50, nM 5-HT2A, human 5-HT2A in HEK-293 cells, FLIPR, NA = no activity at 10 μM
[2] = human 5-HT2A in HEK-293 cells, FLIPR
[3] = EC50, nM 5-HT2B, human 5-HT2B in HEK-293 cells, NA = no activity at 10 μM
[4] = read-out: EC50, nM 5-HT2A, human 5-HT2A in HEK-293 cells, FLIPR, NA = no activity at 10 μM
[5] = read-out: EC50, nM 5-HT2B, human 5-HT2B in HEK-293 cells, NA = no activity at 10 μM

Row | SMILES | Emax, % 5-HT 5-HT2C (footnote a) (rat 5-HT2C-INI) | EC50 (rat 5-HT2C-INI) [nM] | EC50 (5-HT2A; [1]) [nM] | Emax, % 5-HT 5-HT2A (5-HT2A; [2]) | EC50 (5-HT2B; [3]) [nM] | Emax, % 5-HT 5-HT2B (5-HT2B; human 5-HT2B in HEK-293 cells) | EC50 (human 5-HT2C-INI; EC50, nM 5-HT2C) [nM] | Emax, % 5-HT 5-HT2C (human 5-HT2C-INI) | EC50 (5-HT2A; [4]) [nM] | EC50 (5-HT2B; [5]) [nM] | EC50 (human 5-HT2C-INI; read-out: EC50, nM 5-HT2C) [nM] | EC50 (5-HT2A) [nM]
1 | CC(C)Oc1cc(F)c(Cl)cc1C1CC1CN (single isomer, unassigned; (+)) [(+)-Example 3, (+)-(2-(5-Chloro-4-fluoro-2-isopropoxyphenyl)cyclopropyl)methanamine] | (91%) ^a % 5-HT | 56 | – | – | – | – | – | – | – | – | – | –
2 | NCC1CC1c1cc(Cl)ccc1OCC(F)(F)F (single isomer, unassigned; (+)) [(+)-Example 22, (+)-(2-(5-Chloro-2-(2,2,2-trifluoroethoxy)phenyl)cyclopropyl)methanamine] | (85%) ^a % 5-HT | 495 | – | – | – | – | – | – | – | – | – | –
3 | NCC1CC1c1cc(Cl)ccc1Oc1ccccc1 (single isomer, unassigned; (+)) [(+)-Example 27, (+)-(2-(5-Chloro-2-phenoxyphenyl)cyclopropyl)methanamine] | (79%) ^a % 5-HT | 1800 | – | – | – | – | – | – | – | – | – | –
4 | CC(C)Oc1cc(F)c(Cl)cc1C1CC1CN (single isomer, unassigned; (-)) [(−)-Example 3, (−)-(2-(5-Chloro-4-fluoro-2-isopropoxyphenyl)cyclopropyl)methanamine] | (86%) ^a % 5-HT | 588 | – | – | – | – | – | – | – | – | – | –
5 | NCC1CC1c1cc(Cl)ccc1OCC(F)F (single isomer, unassigned; (-)) [(−)-Example 21, (−)-(2-(5-Chloro-2-(2,2-difluoroethoxy)phenyl)cyclopropyl)methanamine] | – | – | 1300 | (43%) % 5-HT | 1480 | (30%) % 5-HT | 914 | (64%) % 5-HT | – | – | – | –
6 | NCC1CC1c1cc(Cl)ccc1Oc1ccccc1 (single isomer, unassigned; (-)) [(−)-Example 27, (−)-(2-(5-Chloro-2-phenoxyphenyl)cyclopropyl)methanamine] | (42%) ^a % 5-HT | 3960 | – | – | – | – | – | – | – | – | – | –
7 | NCC1CC1c1cc(Cl)ccc1OCc1ccccc1 (single isomer, unassigned; (-)) [(−)-Example 28, (−)-(2-(2-(benzyloxy)-5-chlorophenyl)cyclopropyl)methanamine] | (51%) ^a % 5-HT | 1540 | – | – | – | – | – | – | – | – | – | –
8 | COc1ccc(Cl)c(F)c1C1CC1CN (single isomer, unassigned; (-)) [(−)-Example 29, (−)-(2-(3-chloro-2-fluoro-6-methoxyphenyl)cyclopropyl)methanamine] | – | – | – | (86%) % 5-HT | – | (64%) % 5-HT | – | (93%) % 5-HT | 68 | 165 | 3.8 | –
9 | CCOc1ccc(Cl)c(F)c1C1CC1CN (single isomer, unassigned; (-)) [(−)-Example 30, (−)-(2-(3-Chloro-6-ethoxy-2-fluorophenyl)cyclopropyl)methanamine] | – | – | 819 | (31%) % 5-HT | 7420 | (51%) % 5-HT | 97 | (90%) % 5-HT | – | – | – | –
10 | C=CCOc1ccc(Cl)c(F)c1C1CC1CN (single isomer, unassigned; (-)) [(−)-Example 32, (−)-(2-(6-(Allyloxy)-3-chloro-2-fluorophenyl)cyclopropyl)methanamine] | – | – | – | (16%) % 5-HT | – | (5%) % 5-HT | 165 | (87%) % 5-HT | – | – | – | 1080
11 | COc1cc(Cl)c(Cl)cc1C1CC1CN (single isomer, unassigned; (-)) [(−)-Example 33, (−)-(2-(4,5-Dichloro-2-methoxyphenyl)cyclopropyl)methanamine] | – | – | – | (75%) % 5-HT | – | (16%) % 5-HT | – | (89%) % 5-HT | 84 | 696 | 14 | –
12 | NCC1CC1c1cc(Cl)c(Cl)cc1OCCF (single isomer, unassigned; (-)) [(−)-Example 34, (−)-(2-(4,5-Dichloro-2-(2-fluoroethoxy)phenyl)cyclopropyl)methanamine] | – | – | – | (4%) % 5-HT | – | (12%) % 5-HT | 435 | (75%) % 5-HT | – | – | – | –
13 | COc1ccc(Cl)c(Cl)c1C1CC1CN (single isomer, unassigned; (-)) [(−)-Example 36, (−)-(2-(2,3-Dichloro-6-methoxyphenyl)cyclopropyl)methanamine] | – | – | – | (88%) % 5-HT | – | (62%) % 5-HT | – | (104%) % 5-HT | 38 | 51 | 0.95 | –
14 | CCOc1ccc(Cl)c(Cl)c1C1CC1CN (single isomer, unassigned; (-)) [(−)-Example 37, (−)-(2-(2,3-Dichloro-6-ethoxyphenyl)cyclopropyl)methanamine] | – | – | 625 | (12%) % 5-HT | 6830 | (53%) % 5-HT | 30 | (104%) % 5-HT | – | – | – | –
15 | C=CCOc1ccc(Cl)c(Cl)c1C1CC1CN (single isomer, unassigned; (-)) [(−)-Example 39] | – | – | – | (32%) % 5-HT | – | (99%) % 5-HT | – | (93%) % 5-HT | 426 | 3960 | 108 | –
16 | CCOc1cc(F)c(F)cc1C1CC1CN (single isomer, unassigned; (-)) [(−)-Example 41, (−)-(2-(2-Ethoxy-4,5-difluorophenyl)cyclopropyl)methanamine] | – | – | 778 | (52%) % 5-HT | 299 | (35%) % 5-HT | 33 | (103%) % 5-HT | – | – | – | –
17 | COc1ccc(F)c(F)c1C1CC1CN (single isomer, unassigned; (-)) [(−)-Example 45, (−)-(2-(2,3-Difluoro-6-methoxyphenyl)cyclopropyl)methanamine] | – | – | – | (72%) % 5-HT | – | (62%) % 5-HT | – | (108%) % 5-HT | 461 | 462 | 16 | –
18 | CCOc1ccc(F)c(F)c1C1CC1CN (single isomer, unassigned; (-)) [(−)-Example 46, (−)-(2-(6-Ethoxy-2,3-difluorophenyl)cyclopropyl)methanamine] | – | – | 2150 | (18%) % 5-HT | 4270 | (30%) % 5-HT | 83 | (99%) % 5-HT | – | – | – | –
